# According to PMC10857906, “PROTAC-mediated NR4A1 degradation as a novel strategy for cancer immunotherapy” (The Journal of Experimental Medicine, 2024):
# Columns and labels:
# NR4A2 = molecular target: T1, NR4A2 (Homo sapiens, UniProt P43354); experiment: NR4A2 protein level after treatment (immunoblotting); format: cell-based
# T1 construct: endogenous in cells
# Description: (§1) Samples were lysed using radioimmunoprecipitation assay buffer (RIPA) lysis buffer (150 mM NaCl, 5 mM EDTA, 50 mM Tris pH 8.0, 0.5% sodium deoxycholate, 1% NP-40, 0.1% SDS) supplemented with 1 mM dithiothreitol and protease inhibitors. The lysates were separated by SDS-PAGE and analyzed using standard western blotting procedures ([Khan et al., 2019]). Antibodies: human NR4A1 (ab153914, 1:1,000; Abcam), mouse NR4A1 (14-5965-82, 1:1,000; Invitrogen), NR4A2 (AV38753, 1:1,000; Sigma-Aldrich), NR4A3 (TA804893, 1: 1,000; Thermo Fisher Scientific), VHL (68547, 1:1,000; Cell Signaling), β-actin (13E5, 1:5,000; Cell Signaling), β-tubulin (9F3, 1: 5,000; Cell Signaling), and GAPDH (D16H11, 1: 5,000; Cell Signaling) were employed for protein detection.
# NR4A3 = molecular target: T2, NR4A3 (Homo sapiens, UniProt Q92570); experiment: NR4A3 protein level after treatment (immunoblotting); format: cell-based
# T2 construct: endogenous in cells
# Description: as §1
# VHL = molecular target: T3, VHL (Homo sapiens, UniProt P40337); experiment: VHL protein level after treatment (immunoblotting); format: cell-based; details: human melanoma cell lines, 16 h
# T3 construct: endogenous in cells; host or cells: CHL-1, A375, WM164, M229 human melanoma cells
# Description: as §1
# PK study in mice = format: in vivo, C57BL/6 mice; details: mouse
# Description: The PK study of NR-V04 was done by Bioduro Inc. on three healthy male C57BL/6 mice weighing between 20 and 25 g in each group. Test compound (i.v.) was dissolved in 5% DMSO/3% tween 80 in PBS with 0.5 mEq 1N HCl and was administered (n = 3 per group) at a dose level of 2 mg/kg (concentration: 0.4 mg/ml). Test compounds (i.p.) were dissolved in 5% DMSO/3% tween 80 in PBS with 2 mEq 1N HCl (concentration […]) and were administrated at a dose level of 20 mg/kg. Plasma samples (i.v.) were collected from the orbital plexus at 0.083, 0.25, 0.5, 1.0, 2.0, 4.0, 8.0, and 24 h, and plasma samples (i.p.) were collected from the orbital plexus at 0.25, 0.50, 1.0, 2.0, 4.0, 8.0, and 24 h after dosing. The drug concentrations in the samples were quantified by LC/tandem MS. PK parameters were calculated from the mean plasma concentration by non-compartmental analysis.
# OT-1 CD8^+ Texh cells = experiment: T cell exhaustion in vitro, mouse OT-1 CD8^+ T cells; format: cell-based; details: 500 nM, 48 h
# Description: We conducted experiments involving the isolations and treatments of CD8^+ T cells from both OT-1 mice (C57BL/6-Tg(TcraTcrb)1100Mjb/J; Jackson Laboratories) and T cells from human PBMCs. CD8^+ T cells were isolated from OT-1 mice using the EasySep Mouse CD8 T Cell Isolation Kit, followed by daily treatment with 10 ng/ml ovalbumin (257–264) (S7951-1MG; Sigma-Aldrich) for specified durations. After 3 days of ovalbumin treatment, OT-1 CD8^+ T cells were activated, and after 7 days of treatment, they reached a state of exhaustion. Human T cells were isolated from PBMCs using the EasySep Human CD3 Positive Selection Kit II (17851; STEMCELL) and cultured with Dynabeads (Cell/Dynabeads: 1:1, A56992; Thermo Fisher Scientific) for 3 days to induce activation and for 7 days to induce exhaustion. Both mouse and human T cells received a treatment of 500 nM NR-V04 2 days prior to harvesting. To characterize the T cell subtypes, we employed specific flow cytometry antibodies and conducted flow cytometry analysis.
# Mouse tumors were excised and ∼200 mg of tumor tissue was enzymatically and mechanically digested using the mouse Tumor Dissociation Kit (Miltenyi Biotec) to obtain a single-cell suspension. […] Flow cytometry was performed on a three laser Cytek Aurora Cytometer (Cytek Biosciences) and analyzed using FlowJo software (BD Biosciences). […]
# T3 sequence (P40337 whole entry): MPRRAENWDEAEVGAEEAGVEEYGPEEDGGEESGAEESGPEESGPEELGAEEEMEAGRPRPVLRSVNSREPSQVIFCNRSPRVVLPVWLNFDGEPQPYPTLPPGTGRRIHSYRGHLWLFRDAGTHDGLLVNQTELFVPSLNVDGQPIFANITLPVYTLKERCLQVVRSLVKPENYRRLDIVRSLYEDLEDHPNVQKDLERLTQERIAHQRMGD
# T2 sequence (Q92570 whole entry): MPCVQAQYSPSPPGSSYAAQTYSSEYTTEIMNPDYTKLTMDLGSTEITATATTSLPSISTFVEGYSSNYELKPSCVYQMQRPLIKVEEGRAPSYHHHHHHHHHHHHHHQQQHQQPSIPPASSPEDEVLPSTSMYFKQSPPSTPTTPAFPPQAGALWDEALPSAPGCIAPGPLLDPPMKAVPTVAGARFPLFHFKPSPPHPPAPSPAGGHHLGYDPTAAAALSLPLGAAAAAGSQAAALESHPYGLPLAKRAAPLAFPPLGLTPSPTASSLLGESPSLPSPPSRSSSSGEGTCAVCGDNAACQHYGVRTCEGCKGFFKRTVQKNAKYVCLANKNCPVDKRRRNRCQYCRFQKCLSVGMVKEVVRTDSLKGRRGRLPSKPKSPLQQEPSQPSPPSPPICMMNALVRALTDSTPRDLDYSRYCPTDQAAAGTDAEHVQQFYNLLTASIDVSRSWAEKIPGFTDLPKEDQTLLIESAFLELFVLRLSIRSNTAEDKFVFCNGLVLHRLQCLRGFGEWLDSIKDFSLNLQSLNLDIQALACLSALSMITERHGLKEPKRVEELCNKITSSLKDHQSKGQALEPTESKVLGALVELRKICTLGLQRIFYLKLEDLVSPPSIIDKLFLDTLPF
# T1 sequence (P43354 whole entry): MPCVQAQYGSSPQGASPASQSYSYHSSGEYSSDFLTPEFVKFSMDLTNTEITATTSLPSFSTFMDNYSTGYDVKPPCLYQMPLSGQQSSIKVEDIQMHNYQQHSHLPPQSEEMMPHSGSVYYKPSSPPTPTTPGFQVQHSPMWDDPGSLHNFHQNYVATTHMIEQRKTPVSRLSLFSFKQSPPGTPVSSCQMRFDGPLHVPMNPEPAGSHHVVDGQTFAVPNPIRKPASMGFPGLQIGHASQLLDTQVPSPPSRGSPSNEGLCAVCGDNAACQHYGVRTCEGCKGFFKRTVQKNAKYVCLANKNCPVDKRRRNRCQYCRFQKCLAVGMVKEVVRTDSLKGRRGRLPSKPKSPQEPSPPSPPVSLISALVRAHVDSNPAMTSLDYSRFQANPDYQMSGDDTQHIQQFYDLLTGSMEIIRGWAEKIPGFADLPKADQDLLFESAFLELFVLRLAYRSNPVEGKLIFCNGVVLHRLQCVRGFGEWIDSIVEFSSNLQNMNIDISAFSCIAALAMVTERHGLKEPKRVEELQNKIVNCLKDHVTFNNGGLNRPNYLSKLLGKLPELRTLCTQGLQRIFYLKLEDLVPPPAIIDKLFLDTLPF
compound,measurement,setting,value
CC1=C(O)C(=O)C=C2C1=CC=C1[C@@]2(C)CC[C@@]2(C)[C@@H]3C[C@](C)(C(=O)NCCOCCOCCOCCOCC(=O)N[C@H](C(=O)N4C[C@H](O)C[C@H]4C(=O)N[C@@H](C)c4ccc(-c5scnc5C)cc4)C(C)(C)C)CC[C@]3(C)CC[C@]12C [NR-V04],NR4A2 protein level (selectivity in the NR4A family),NR4A2,sparing NR4A2 and NR4A3
same,NR4A3 protein level (selectivity in the NR4A family),NR4A3,sparing NR4A2 and NR4A3
same,VHL protein level,VHL,accumulation of VHL protein
same,clearance,"PK study in mice; male, C57BL/6, plasma, IV 2 mg/kg",0.162 mL/min/kg
same,clearance rate (in words),PK study in mice,low clearance rate
same,CD8^+ Texh cells (PD1^+Tim3^+),OT-1 CD8^+ Texh cells,significant reduction in CD8^+ Texh cells
